Experimental data as given in patent publication US9625446B2, “Method and quantification assay for determining c-kit/SCF/pAKT status” (Ventana Medical Systems, Inc., priority 2001, dated 2017).

Biological target: c-kit receptor (Homo sapiens, UniProt P10721)
Settings: MDA-MB-361 cells, SCF ligand present, three-day culture, STI-571 1 μM to 40 μM, 50 μg total protein lysate, FIG. 4

Chain of c-kit receptor (P10721 26-976): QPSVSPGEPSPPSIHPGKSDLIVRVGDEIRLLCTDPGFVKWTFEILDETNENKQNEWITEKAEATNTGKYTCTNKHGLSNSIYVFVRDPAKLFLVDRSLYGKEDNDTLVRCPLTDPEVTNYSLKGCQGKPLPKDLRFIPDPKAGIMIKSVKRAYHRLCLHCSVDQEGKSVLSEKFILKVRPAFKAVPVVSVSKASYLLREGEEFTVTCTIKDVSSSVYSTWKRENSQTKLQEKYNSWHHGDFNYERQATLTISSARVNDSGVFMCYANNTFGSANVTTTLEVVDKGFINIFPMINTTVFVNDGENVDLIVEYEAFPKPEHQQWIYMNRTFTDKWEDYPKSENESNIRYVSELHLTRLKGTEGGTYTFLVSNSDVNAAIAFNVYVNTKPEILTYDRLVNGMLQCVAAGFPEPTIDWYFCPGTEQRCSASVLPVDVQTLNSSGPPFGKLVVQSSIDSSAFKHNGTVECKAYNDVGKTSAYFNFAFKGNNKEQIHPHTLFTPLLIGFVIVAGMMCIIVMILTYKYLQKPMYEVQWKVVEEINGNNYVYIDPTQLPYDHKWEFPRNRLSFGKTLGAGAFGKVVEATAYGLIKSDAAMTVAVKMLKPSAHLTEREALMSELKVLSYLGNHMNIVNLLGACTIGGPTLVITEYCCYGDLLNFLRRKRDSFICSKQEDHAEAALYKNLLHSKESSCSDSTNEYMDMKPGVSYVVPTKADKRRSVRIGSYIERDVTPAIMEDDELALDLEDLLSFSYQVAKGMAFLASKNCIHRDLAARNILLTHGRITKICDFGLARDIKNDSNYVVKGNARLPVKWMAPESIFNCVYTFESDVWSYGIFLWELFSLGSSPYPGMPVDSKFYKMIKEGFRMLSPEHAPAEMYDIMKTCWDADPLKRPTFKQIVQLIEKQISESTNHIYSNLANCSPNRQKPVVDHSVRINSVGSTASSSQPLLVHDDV

- STI-571 concentration at which SCF-induced c-kit activation is inhibited (no 145 kDa activated c-kit band): ≤ 1 µM
SMILES: Cc1ccc(NC(=O)c2ccc(CN3CCN(C)CC3)cc2)cc1Nc1nccc(-c2cccnc2)n1 [STI-571]
